US12122787B2, “Fused pyridone compound, and preparation method therefor and use thereof” (SHANGHAI JEMINCARE PHARMACEUTICALS CO., LTD, priority 2019, dated 2024)
Where two headings read alike, the source gives them in different places.

Columns and labels:
Type in all cases: cell-based
[1] = tested on: phosphorylated ERK (Thr202/Tyr204) in NCI-H358 cells expressing mutant RAS(G12C); assay: Inhibition of RAS-mediated signal transduction: phosphorylated ERK ELISA in NCI-H358 cells
Description: The cells were treated with or without the compound of the present disclosure (dimethyl sulfoxide, DMSO), and the final concentration of DMSO was guaranteed to be 0.5%. After 2 hours of treatment, the medium was removed and 4% paraformaldehyde (Beyotime catalog number E672002-0100) was added and left to stand for 20 minutes. Cells were washed with PBS after fixation and incubated with precooled methanol for 10 min to permeabilize the cell membrane.
The level of phosphorylated ERK was detected using an enzyme linked immunosorbent assay (ELISA) method. […] The plates were washed 5 times with PBS containing 0.05% Tween 20. […] The reaction was stopped by adding 1 mol/L H2SO4, and the OD value was read at 450 nm by EnVision (PerkinElmer).
The total number of cells per well was detected by Janus Green B staining method. After detecting the level of phosphorylated ERK, the 96-well plate was washed with PBS until colorless, and 0.1% Janus Green B (Abcam catalogue number ab111622) was added to incubate for 10 minutes. After the 96-well plate was washed with double distilled water, 0.1 mol/L HCl was added, then the mixture was shaked and incubated for 10 minutes. The OD value was read at 595 nm by EnVision (PerkinElmer).
The signal of pERK (Thr202/Tyr204) was normalized by the signal value of Janus Green B, and the inhibition percentage after drug treatment relative to DMSO reference was calculated. The percentage values were fitted by a four-parameter dose-response curve and generated IC50 values.

[2] = tested on: NCI-H358 cells expressing KRAS-G12C; assay: Growth inhibition of tumor cell line expressing KRAS-G12C (Cell Titer Glo), NCI-H358
Description: (§1) The ability of the compounds of the present disclosure to inhibit the growth of cells expressing KRAS-G12C was evaluated by measuring the cell viability and calculating the GI50 values.
(§2) The tumor cell line NCI-H358 (ATCC catalogue number CRL-5807) expressing KRAS-G12C was cultured in RPMI medium supplemented with 10% fetal bovine serum and penicillin/streptomycin, and the tumor cell line MIA PaCa2 (ATCC CRL-1420) expressing KRAS-G12C was cultured in DMEM medium supplemented with 10% fetal bovine serum, 2.5% horse serum, and penicillin/streptomycin.
(§3) Cells NCI-H358 and MIA-Paca2 were inoculated into black transparent bottom 384-well plate (PerkinElmer catalogue number 6007460) with cell density of 1000 and 800 respectively, and the cells were allowed to adhere to the wall overnight (8-12 hours). After the cells adhered to the wall, the experimental group was added with the compound of the present disclosure diluted 5 times the concentration of the working solution (final concentration containing 0.1% dimethyl sulfoxide, i.e. DMSO); the control group was added with the same dilution as the experimental group (final concentration containing 0.1% DMSO). After 72 hours, Cell Titer Glo reagent (Promega catalogue number G7572) was used to detect ATP content according to the instruction method to determine the amount of cell proliferation. The brief operation steps were as follows: the cell plate was taken out and kept at normal temperature for equilibrium for 30 minutes; Cell Titer Glo reagent with the same volume as the culture was added; the culture plate was placed on a shaker for shaking and cracking for 2 minutes; the culture plate was left to stand at room temperature for 10 minutes; then the light signal value was read by microplate reader EnVision (PerkinElmer).
(§4) Data from all experimental groups were used to calculate the respective percent inhibition using the DMSO group, and the GI50 was calculated using the data processing software GraphPad to analyze the inhibition rates produced by the 9 compound dose concentrations diluted at ⅓-fold ratio.

[3] = tested on: MIA PaCa2 cells expressing KRAS-G12C; assay: Growth inhibition of tumor cell line expressing KRAS-G12C (Cell Titer Glo), MIA PaCa2
Description: as §1, §2, §3, §4

[4] = NCI-H358 cells, 2 hours of treatment, pERK normalized by Janus Green B, read-out: p-ERK IC50 (NCI H358)
[5] = Homo sapiens, NCI-H358, 2 h, NCI-H358 cells, 2 hours of treatment, pERK normalized by Janus Green B, read-out: p-ERK IC50 (NCI H358)
[6] = Homo sapiens, MIA PaCa-2, 72 h, MIA-Paca2, 72 hours

SMILES | IC50 [1, 4] [µM] | GI50 ([2]; NCI-H358, 72 hours) [µM] | GI50 ([3]; MIA-Paca2, 72 hours) [µM] | IC50 [1, 5] [µM] | GI50 ([2]; Homo sapiens, NCI-H358, 72 h) [µM] | GI50 [3, 6] [µM] | other results
C=CC(=O)N1CC2COc3c(c4cc(Cl)c(-c5c(O)cccc5F)c(F)c4n(-c4c(C)ccnc4C(C)C)c3=O)N2CC1C (single isomer, unassigned) [Compound 18B-2] | 0.102 | 0.149 | 0.172 |  |  |  | 
C=CC(=O)N1C[C@@H]2C(=O)N(C)c3c(c4cc(F)c(-c5c(O)cccc5F)nc4n(-c4ccccc4C(C)C)c3=O)N2C[C@H]1C (atropisomer, axis not shown) [Compound 7B] |  |  |  | 0.098 | 0.148 | 0.328 | 
C=CC(=O)N1CC2C(=O)Nc3c(c4cc(F)c(-c5c(O)cccc5F)c(F)c4n(-c4c(C)ccnc4C(C)C)c3=O)N2CC1C (single isomer, unassigned) [Compound 22A-2] | 0.054 | 0.042 | 0.119 |  |  |  | 
C=CC(=O)N1C[C@@H]2COc3c(c4cc(Cl)c(-c5c(O)cccc5F)c(F)c4n(-c4c(C)ccnc4C(C)C)c3=O)N2C[C@H]1C (atropisomer, axis not shown) [Compound 18A-2] | 0.013 | 0.012 | 0.024 |  |  |  | 
C=CC(=O)N1C[C@@H]2C(=O)N(C)c3c(c4cc(Cl)c(-c5c(O)cccc5F)nc4n(-c4c(C)ccnc4C(C)C)c3=O)N2C[C@H]1C [Compound 25A] |  |  |  | 0.014 | 0.01 | 0.029 | 
C=CC(=O)N1C[C@@H]2C(=O)N(C)c3c(c4cc(F)c(-c5c(C)ccc6[nH]ncc56)c(F)c4n(-c4c(C)ccnc4C(C)C)c3=O)N2C[C@H]1C [Compound 32A] |  |  |  | 0.274 | 0.442 | 0.604 | 
C=CC(=O)N1C[C@@H]2COc3c(c4cc(Cl)c(-c5c(O)cccc5F)c(F)c4n(-c4c(C)ccnc4C(C)C)c3=O)N2C[C@H]1C [Compound 18A-1] | 0.004 | 0.002 | 0.01 |  |  |  | 
C=CC(=O)N1C[C@@H]2C(=O)N(C)c3c(c4cc(F)c(-c5c(O)cccc5F)c(F)c4n(-c4c(C(C)C)ncnc4C(C)C)c3=O)N2C[C@H]1C [Compound 20A] |  |  |  | 0.004 | 0.004 | 0.01 | 
C=CC(=O)N1C[C@@H]2C(=O)N(CCN(C)C)c3c(c4cc(Cl)c(-c5c(O)cccc5F)nc4n(-c4c(C)ccnc4C(C)C)c3=O)N2C[C@H]1C [Compound 29A] |  |  |  | 0.124 | 0.044 | 0.067 | 
C=CC(=O)N1C[C@@H]2C(=O)N(C)c3c(c4cc(Cl)c(-c5ccc(F)c6nc(N)sc56)nc4n(-c4c(C)ccnc4C(C)C)c3=O)N2C[C@H]1C (single isomer, unassigned) [Compound 56B] | 0.011 | 0.012 | 0.025 |  |  |  | 
C=CC(=O)N1CCN(c2ncnc3c(F)c(-c4c(O)cccc4F)c(Cl)cc23)CC1 [ARS-1620] |  |  |  |  |  |  | IC50 ([1]; Homo sapiens, NCI-H358, 2 h, read-out: p-ERK IC50 (NCI H358, μM)): 0.325 µM; GI50 ([2]; Homo sapiens, NCI-H358, 72 hours): 0.51 µM; GI50 ([3]; Homo sapiens, MIA PaCa-2, MIA-Paca2, 72 hours): 1.21 µM
C=CC(=O)N1C[C@@H]2COc3c(c4cc(F)c(-c5c(O)cccc5F)nc4n(-c4ccccc4C(C)C)c3=O)N2C[C@H]1C [Compound 2A] |  |  |  | 0.066 | 0.143 | 1.02 | 
C=CC(=O)N1CC2C(=O)N(CCN(C)C)c3c(c4cc(F)c(-c5c(O)cccc5F)c(F)c4n(-c4c(C)ccnc4C(C)C)c3=O)N2CC1C (stereo not drawn) [Compound 24C] | 0.012 | 0.011 | 0.023 |  |  |  | 
C=CC(=O)N1C[C@@H]2CN(CC(N)=O)c3c(c4cc(F)c(-c5c(O)cccc5F)c(F)c4n(-c4c(C)ccnc4C(C)C)c3=O)N2C[C@H]1C [Compound 44A] |  |  |  | 0.58 | 0.424 | 1.57 | 
C=CC(=O)N1C[C@@H]2C(=O)N(CCN(C)C)c3c(c4cc(Cl)c(-c5c(O)cccc5F)c(F)c4n(-c4c(C)ccnc4C(C)C)c3=O)N2C[C@H]1C (single isomer, unassigned) [Compound 26C] | 0.002 | 0.002 | 0.001 |  |  |  | 
C=CC(=O)N1C[C@@H]2C(=O)N(C)c3c(c4cc(F)c(-c5c(O)cccc5F)c(F)c4n(-c4c(C(C)C)ncnc4C(C)C)c3=O)N2C[C@H]1C [Compound 20B] | 0.264 | 0.413 | 1.59 |  |  |  | 
C=CC(=O)N1C[C@@H]2COc3c(c4cc(F)c(-c5c(C)ccc6[nH]ncc56)nc4n(-c4ccccc4C(C)C)c3=O)N2C[C@H]1C (single isomer, unassigned) [Compound 13A] | 0.04 |  |  |  | 0.059 | 0.265 | 
C=CC(=O)N1C[C@@H]2C(=O)N(CCN(C)C)c3c(c4cc(Cl)c(-c5c(O)cccc5F)c(F)c4n(-c4c(C)ccnc4C(C)C)c3=O)N2C[C@H]1C (atropisomer, axis not shown) [Compound 26B] | 0.019 | 0.022 | 0.028 |  |  |  | 
C=CC(=O)N1CC2C(=O)N(CCN(C)C)c3c(c4cc(F)c(-c5c(O)cccc5F)c(F)c4n(-c4c(C)ccnc4C(C)C)c3=O)N2CC1C (stereo not drawn) [Compound 24D] | 0.246 | 0.232 | 0.407 |  |  |  | 
C=CC(=O)N1CC2C(=O)N(CCN(C)C)c3c(c4cc(F)c(-c5c(O)cccc5F)c(F)c4n(-c4c(C)ccnc4C(C)C)c3=O)N2CC1C (stereo not drawn) [Compound 24B] | 0.075 | 0.068 | 0.112 |  |  |  | 
C=CC(=O)N1C[C@@H]2CN(CCCO)c3c(c4cc(F)c(-c5c(O)cccc5F)c(F)c4n(-c4c(C)ccnc4C(C)C)c3=O)N2C[C@H]1C (atropisomer, axis not shown) [Compound 35A-1] | 0.313 | 0.163 | 2.6 |  |  |  | 
C=CC(=O)N1C[C@@H]2C(=O)N(CCN(C)C)c3c(c4cc(Cl)c(-c5c(F)cccc5OC)c(F)c4n(-c4c(C)ccnc4C(C)C)c3=O)N2C[C@H]1C (atropisomer, axis not shown) [Compound 27A] |  |  |  | 0.087 | 0.147 | 0.152 | 
C=CC(=O)N1C[C@@H]2C(=O)N(C)c3c(c4cc(Cl)c(-c5ccc(F)c6nc(N)sc56)nc4n(-c4c(C)ccnc4C(C)C)c3=O)N2C[C@H]1C (single isomer, unassigned) [Compound 56A] | 0.183 | 0.223 | 0.448 |  |  |  | 
C=CC(=O)N1C[C@@H]2C(=O)N(C)c3c(c4cc(Cl)c(-c5c(F)cccc5OC)c(F)c4n(-c4c(C)ncnc4C(C)C)c3=O)N2C[C@H]1C [Compound 50] |  |  |  | 0.041 | 0.062 | 0.094 | 
C=CC(=O)N1C[C@@H]2C(=O)N(CCN(C)C)c3c(c4cc(Cl)c(-c5c(O)cccc5F)c(F)c4n(-c4c(CC)ccnc4C(C)C)c3=O)N2C[C@H]1C (atropisomer, axis not shown) [Compound 54B-1] | 0.012 |  |  |  | 0.007 | 0.006 | 
